Assay results published in patent publication US9079881B2, “Polymorph of 1-(2-methyl-4-(2,3,4,5-tetrahydro-1-benzazepin-1-ylcarbonyl)benzylcarbamoyl)-L-proline-N,N-dimethylamide” (Vantia Limited, priority 2010, dated 2015).
Entries after “also recorded” stand apart in the source; their conditions may differ. Like-named read-outs stand apart in the source and are kept apart here.

Key:
vasopressin V2 receptor = target: T1, vasopressin V2 receptor (Rattus norvegicus, UniProt Q00788); assay: in vivo assay described in PCT/GB2001/000023 (inhibition of urine output); details: at 1 hour, dosed at 1 mg/Kg
T1 construct: from tissue; host or cells: whole animal (in vivo)
T1 sequence (Q00788 whole entry): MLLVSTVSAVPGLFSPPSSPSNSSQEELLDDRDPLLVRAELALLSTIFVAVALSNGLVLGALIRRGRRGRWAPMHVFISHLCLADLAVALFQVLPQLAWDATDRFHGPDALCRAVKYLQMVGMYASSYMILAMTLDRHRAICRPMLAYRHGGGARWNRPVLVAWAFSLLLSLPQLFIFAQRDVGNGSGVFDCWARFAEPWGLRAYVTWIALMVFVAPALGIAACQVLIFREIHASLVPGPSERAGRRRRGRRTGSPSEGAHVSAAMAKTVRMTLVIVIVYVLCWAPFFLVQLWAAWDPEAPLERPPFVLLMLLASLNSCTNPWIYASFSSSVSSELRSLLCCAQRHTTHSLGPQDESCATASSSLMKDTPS
Description: The ability of the crystalline form of the invention to agonise the vasopressin V2 receptor may be determined using the in vivo assay described in PCT/GB2001/000023.

[1] = Gravimetric Vapour Sorption Analysis (GVA), hygroscopicity testing; assay type: physicochemical
Experimental: Gravimetric Vapour Sorption Analysis (GVA) was carried out with approximately 20 mg of sample placed into a suitable sample holder such as a wire-mesh vapour sorption balance pan. This was loaded into either an IGAsorp (Hiden Analytical Instruments) or a DVS Intrinsic (Surface Measurement Systems) vapour sorption balance held at 25+/−0.1° C. The sample was then dried by maintaining a 0% humidity environment until no further weight change was recorded (alternatively, the sorption/desorption cycle is initiated at typical ambient conditions of 40% relative humidity). Subsequently, the sample was then subjected to a ramping profile up to 90% relative humidity at 10% relative humidity increments, maintaining the sample at each step until equilibration had been attained (99.5% step completion). Upon reaching equilibration, the relative humidity within the apparatus was ramped to the next step and the equilibration procedure repeated. After completion of the sorption cycle, the sample was then dried using the same procedure. The weight change during the sorption/desorption cycles was then monitored, allowing for the hygroscopic nature of the sample to be determined.
The amorphous form is hygroscopic as indicated by Gravimetric Vapour Sorption Analysis (GVA).
In contrast, there was no significant water uptake observed between 40% RH and 90% RH (approximately 0.3% w/w) by the crystalline solid form (the water sorption/desorption isotherms are shown in FIGS. 9 and 10).

[2] = Stability testing: storage for 6 months at 40° C. and 75% relative humidity (Karl Fischer, HPLC, appearance); assay type: physicochemical; details: for sum of impurities (HPLC), initial / water / moisture content (Karl Fischer), initial: before storage
Experimental: Karl Fischer moisture content determination was carried out using Metrohm 795 KFT volumetric Karl Fischer apparatus. Sample size was approximately 100 mg and the determination was carried out in duplicate.
HPLC data were collected using a Zorbax Extend C18, 2.1 mm×150 mm, 5 μm d.p. column. Flow rate was 0.3 mL/min. Injection volume was 10 μL, detector wavelength 220 nm and column temperature 40° C. Eluent A was 10 mM aqueous ammonium acetate, pH 5.0. Eluent B was 20:80 v/v 10 mM aqueous ammonium acetate: acetonitrile. The gradient programme is shown below: […]
Also, there is no significant degradation as measured by the sum of impurities which increases only from 0.9% to 1.0% (HPLC).

[3] = 6 months at 40° C. and 75% relative humidity

Compound | inhibition of urine output (vasopressin V2 receptor) [%] | hygroscopicity (in words) [1] | change in solid form over the entire water sorption range [1] | hygroscopicity (in words) ([1]; listed as amorphous solid) | appearance after storage [2, 3] | sum of impurities (HPLC) after storage [2, 3] [%] | water / moisture content (Karl Fischer) after storage [2, 3] [%] | sum of impurities (HPLC), initial [2] [%] | water / moisture content (Karl Fischer), initial [2] [%] | water uptake between 40% RH and 90% RH ([1]; 25 °C, 40% RH to 90% RH) | change in solid form over the entire water sorption range ([1]; listed as crystalline solid form) | stability (in words) [2, 3] | water / moisture content (Karl Fischer), initial ([2]; listed as Form 1) [%]
Cc1cc(C(=O)N2CCCCc3ccccc32)ccc1CNC(=O)N1CCC[C@H]1C(=O)N(C)C [1-(2-methyl-4-(2,3,4,5-tetrahydro-1-benzazepin-1-ylcarbonyl)benzylcarbamoyl)-L-proline-N,N-dimethylamide] | 82 |  |  |  |  |  |  |  |  |  |  |  | 
Cc1cc(C(=O)N2CCCCc3ccccc32)ccc1CNC(=O)N1CCC[C@H]1C(=O)N(C)C [amorphous form, 1-(2-methyl-4-(2,3,4,5-tetrahydro-1-benzazepin-1-ylcarbonyl)benzylcarbamoyl)-L-proline-N,N-dimethylamide] |  | highly hygroscopic | remained stable to recrystallisation | hygroscopic | became glassy in appearance and became yellow in colour; also recorded: became glassy in appearance and yellow in colour | 3.7 | 5.7 | 1.5 | 1.3 |  |  |  | 
Cc1cc(C(=O)N2CCCCc3ccccc32)ccc1CNC(=O)N1CCC[C@H]1C(=O)N(C)C [crystalline form, 1-(2-methyl-4-(2,3,4,5-tetrahydro-1-benzazepin-1-ylcarbonyl)benzylcarbamoyl)-L-proline-N,N-dimethylamide] |  | much less hygroscopic than the amorphous form | Neither is there any change in solid form |  | remains as a white powder | 1.0 | 3.8 | 0.9 |  | approximately 0.3 % w/w | no change in solid state form | more stable than the amorphous form | 3.8
